Test results published in ChEMBL document CHEMBL1155390, “Isolation and biological evaluation of 8-epi-malyngamide C from the Floridian marine cyanobacterium Lyngbya majuscula” (J Nat Prod, 2010).
The source made the active and inactive calls. The rule behind the calls is not given here.

Legend:
Escherichia coli [1] = test: Antibacterial activity against Escherichia coli JM109 harboring pSB1075 assessed as cell density at 10 to 1000 uM after 6.5 hrs
HT-29 = test: Cytotoxicity against human HT-29 cells after 48 hrs MTT assay; assay type: functional, cell-based; details: HT-29, 48 h
Escherichia coli [2] = test: Inhibition of quorum sensing in Escherichia coli JM109 harboring pSB1075 assessed as suppression of LasR-mediated 3-oxo-C12-HSL signaling at 10 to 1000 uM after 6.5 hrs by reporter gene assay

CCCCCCC[C@@H](C/C=C/CCC(=O)NC/C(=C/Cl)[C@]12O[C@H]1[C@H](O)CCC2=O)OC
Activity (Escherichia coli [1]): inactive
IC50 (HT-29): 15.4 µM
Activity (Escherichia coli [2]): Active

CCCCCCC[C@@H](C/C=C/CCC(=O)NC/C(=C/Cl)[C@]12O[C@H]1[C@@H](O)CCC2=O)OC [MALYNGAMIDE C]
Activity (Escherichia coli [1]): inactive
IC50 (HT-29): 5.2 µM
Activity (Escherichia coli [2]): Active
